Laboratory results published in patent US8802673B2, “Heterocyclic amine derivatives” (Hoffmann-La Roche Inc, priority 2011, dated 2014).

Experiments:
[1] = target: mouse TAAR1 (Mus musculus (Mouse), UniProt Q923Y8); test: Radioligand binding assay on mouse TAAR1; details: mouse TAAR1 (first value of the cell), HEK-293 membranes; read-out: Ki (μM) mouse/rat
Method in brief: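 Membranes from HEK293 cells stably expressing mouse TAAR1, Kd of radioligand determined per batch by saturation. Compounds tested 10 pM to 10 μM in duplicate, incubated 1 h at 4 °C, then filtration over PEI-soaked GF/C filters and scintillation counting.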

[2] = target: rat TAAR1 (Rattus norvegicus (Rat), UniProt Q923Y9); test: Radioligand binding assay on rat TAAR1; details: rat TAAR1 (second value of the cell), HEK-293 membranes; read-out: Ki (μM) mouse/rat
Method in brief: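 Membranes from HEK293 cells stably expressing rat TAAR1 were used, with radioligand Kd determined by saturation for each batch. Compounds (10 pM to 10 μM, in duplicate) were incubated for 1 h at 4 °C. Bound radioactivity was collected by filtration onto PEI-soaked GF/C filters and counted by scintillation.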

Chain of mouse TAAR1 (Q923Y8 whole entry): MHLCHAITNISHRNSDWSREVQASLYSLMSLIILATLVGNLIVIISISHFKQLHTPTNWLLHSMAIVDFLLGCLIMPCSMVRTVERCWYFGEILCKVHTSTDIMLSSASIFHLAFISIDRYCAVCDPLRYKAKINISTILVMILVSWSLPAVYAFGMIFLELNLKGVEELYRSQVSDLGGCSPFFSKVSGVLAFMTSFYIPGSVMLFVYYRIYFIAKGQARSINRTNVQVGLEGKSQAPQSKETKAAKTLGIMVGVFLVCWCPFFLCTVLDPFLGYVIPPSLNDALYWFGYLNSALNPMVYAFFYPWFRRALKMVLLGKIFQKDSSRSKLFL
Chain of rat TAAR1 (Q923Y9 whole entry): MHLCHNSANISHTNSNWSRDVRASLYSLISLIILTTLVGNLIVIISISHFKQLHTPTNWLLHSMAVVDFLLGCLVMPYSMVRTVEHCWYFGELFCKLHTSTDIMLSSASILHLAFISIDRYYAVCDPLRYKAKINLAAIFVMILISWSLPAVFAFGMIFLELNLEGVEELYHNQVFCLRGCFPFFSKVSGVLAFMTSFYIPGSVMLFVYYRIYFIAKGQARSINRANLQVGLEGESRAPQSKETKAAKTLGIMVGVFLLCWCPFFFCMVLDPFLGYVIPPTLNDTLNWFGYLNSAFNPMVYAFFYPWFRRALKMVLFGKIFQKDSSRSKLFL

Row | SMILES | Ki [1] [µM] | Ki [2] [µM]
1 | Fc1cc(Nc2ncc(C3CC3)cn2)ccc1[C@H]1CNCCO1 [Example 195, (S)-5-Cyclopropyl-N-(3-fluoro-4-(morpholin-2-yl)phenyl)pyrimidin-2-amine] | 0.0017 | 0.0252
2 | N#Cc1ccnc(Nc2ccc([C@@H]3CNCCO3)cc2)n1 [Example 181, 2-((R)-4-Morpholin-2-yl-phenylamino)-pyrimidine-4-carbonitrile] | 0.0084 | 0.398
3 | CCc1cnc(Nc2ccc([C@H]3CNCCO3)cc2)nc1 [Example 15, (5-Ethyl-pyrimidin-2-yl)-((S)-4-morpholin-2-yl-phenyl)-amine] | 0.0028 | 0.0466
4 | Clc1cncc(Nc2ccc([C@@H]3CNCCO3)cc2)n1 [Example 206, (R)-6-Chloro-N-(4-(morpholin-2-yl)phenyl)pyrazin-2-amine] | 0.005 | 0.0963
5 | Fc1cc([C@H]2CNCCO2)ccc1Nc1ncc(OCC(F)(F)F)cn1 [Example 145, ((S)-2-Fluoro-4-morpholin-2-yl-phenyl)-[5-(2,2,2-trifluoro-ethoxy)-pyrimidin-2-yl]-amine] | 0.0034 | 0.0067
6 | FC(F)(F)c1cnc(Nc2ccc([C@H]3CNCCO3)cc2)nc1 [Example 19, ((S)-4-Morpholin-2-yl-phenyl)-(5-trifluoromethyl-pyrimidin-2-yl)-amine] | 0.0056 | 0.0236
7 | c1ccc(CCNc2ccc([C@H]3CNCCO3)cc2)cc1 [Example 13, ((S)-4-Morpholin-2-yl-phenyl)-phenethyl-amine] | 0.0266 | 0.108
8 | Fc1ncccc1Nc1ccc([C@H]2CNCCO2)cc1 [Example 55, (2-Fluoro-pyridin-3-yl)-((S)-4-morpholin-2-yl-phenyl)-amine] | 0.738 | 1.98
9 | c1cc(C2CC2)nc(Nc2ccc([C@@H]3CNCCO3)cc2)n1 [Example 189, (4-Cyclopropyl-pyrimidin-2-yl)-((R)-4-morpholin-2-yl-phenyl)-amine] | 0.109 | 0.0605
10 | CCc1cnc(Nc2ccc(C3CNCCO3)cc2C)nc1 (racemic) [Example 88, (RS)-5-Ethyl-N-(2-methyl-4-(morpholin-2-yl)phenyl)pyrimidin-2-amine] | 0.008 | 0.0874
11 | Fc1cc([C@@H]2CNCCO2)ccc1Nc1ncc(OCC(F)(F)F)cn1 [Example 144, ((R)-2-Fluoro-4-morpholin-2-yl-phenyl)-[5-(2,2,2-trifluoro-ethoxy)-pyrimidin-2-yl]-amine] | 0.0042 | 0.0049
12 | Cc1cc(C2CNCCO2)cnc1Nc1ccc(Br)cn1 (racemic) [Example 120, (RS)—N-(5-Bromopyridin-2-yl)-3-methyl-5-(morpholin-2-yl)pyridin-2-amine] | 0.0058 | 0.0364
13 | CCOc1cnc(Nc2ccc([C@@H]3CNCCO3)cc2)nc1 [Example 105, (5-Ethoxy-pyrimidin-2-yl)-((R)-4-morpholin-2-yl-phenyl)-amine] | 0.0116 | 0.127
14 | Cc1cnc(Nc2ccc([C@H]3CNCCO3)cc2)cn1 [Example 156, (5-Methyl-pyrazin-2-yl)-((S)-4-morpholin-2-yl-phenyl)-amine] | 0.0093 | 0.833
15 | FC(F)Oc1cnc(Oc2cnc(Nc3ccc([C@@H]4CNCCO4)cc3Cl)nc2)nc1 [Example 175, (R)—N-(2-Chloro-4-(morpholin-2-yl)phenyl)-5-(5-(difluoromethoxy)pyrimidin-2-yloxy)pyrimidin-2-amine] | 0.006 | 0.0066
16 | Cc1cnc(Nc2ccc([C@H]3CNCCO3)cc2)nc1 [Example 18, (5-Methyl-pyrimidin-2-yl)-((S)-4-morpholin-2-yl-phenyl)-amine] | 0.0054 | 0.313
17 | Fc1cncc(Nc2ccc([C@H]3CNCCO3)cc2)c1 [Example 43, (S)-5-Fluoro-N-(4-(morpholin-2-yl)phenyl)pyridin-3-amine] | 0.0269 | 0.648
18 | Cc1cc([C@@H]2CNCCO2)ccc1Nc1ncc(C(F)(F)F)cn1 [Example 166, ((R)-2-Methyl-4-morpholin-2-yl-phenyl)-(5-trifluoromethyl-pyrimidin-2-yl)-amine] | 0.0301 | 0.159
19 | Fc1cc(Cl)cnc1Nc1ccc([C@H]2CNCCO2)cc1 [Example 77, (S)-5-Chloro-3-fluoro-N-(4-(morpholin-2-yl)phenyl)pyridin-2-amine] | 0.0053 | 0.13
20 | CCc1cnc(Nc2ccc([C@@H]3CNCCO3)cc2C)nc1 [Example 106, (5-Ethyl-pyrimidin-2-yl)-((R)-2-methyl-4-morpholin-2-yl-phenyl)-amine] | 0.0086 | 0.0814
21 | Brc1ccc(CNc2ccc([C@H]3CNCCO3)cc2)cc1 [Example 45, (4-Bromo-benzyl)-((S)-4-morpholin-2-yl-phenyl)-amine] | 0.0061 | 0.126
22 | FC(F)(F)c1ccnc(Nc2ccc([C@@H]3CNCCO3)cc2)n1 [Example 173, (R)—N-(4-(Morpholin-2-yl)phenyl)-4-(trifluoromethyl)pyrimidin-2-amine] | 0.0044 | 0.0625
23 | CS(=O)(=O)c1cnc(Nc2ccc([C@H]3CNCCO3)cc2)nc1 [Example 78, (5-Methanesulfonyl-pyrimidin-2-yl)-((S)-4-morpholin-2-yl-phenyl)-amine] | 0.11 | 3.19
24 | CCCc1cnc(Nc2ccc([C@H]3CNCCO3)cc2)nc1 [Example 21, ((S)-4-Morpholin-2-yl-phenyl)-(5-propyl-pyrimidin-2-yl)-amine] | 0.002 | 0.0245
25 | c1cc([C@H]2CNCCO2)ccc1Nc1ncc2c(n1)CCCC2 [Example 74, ((S)-4-Morpholin-2-yl-phenyl)-(5,6,7,8-tetrahydro-quinazolin-2-yl)-amine] | 0.0059 | 0.0295

Other lines, results leading:

Row | Ki [1] [µM] | Ki [2] [µM] | SMILES
26 | 0.0027 | 0.101 | Cc1cnc(Nc2ccc([C@H]3CNCCO3)cc2)cc1Br [Example 64, (S)-4-Bromo-5-methyl-N-(4-(morpholin-2-yl)phenyl)pyridin-2-amine]
27 | 0.0039 | 0.007 | CCc1cnc(Nc2ccc([C@@H]3CNCCO3)cc2F)nc1 [Example 116, (5-Ethyl-pyrimidin-2-yl)-((R)-2-fluoro-4-morpholin-2-yl-phenyl)-amine]
28 | 0.0005 | 0.0094 | Cc1cc(Nc2ccc([C@H]3CNCCO3)cc2)ncc1Br [Example 62, (S)-5-Bromo-4-methyl-N-(4-(morpholin-2-yl)phenyl)pyridin-2-amine]
29 | 0.0053 | 0.0164 | CCOc1cnc(Nc2ccc(C3CNCCO3)cc2F)nc1 (racemic) [Example 100, (RS)-(5-Ethoxy-pyrimidin-2-yl)-(2-fluoro-4-morpholin-2-yl-phenyl)-amine]
30 | 0.005 | 0.0877 | CCc1cnc(Nc2ccc([C@H]3CNCCO3)cc2C)nc1 [Example 107, (5-Ethyl-pyrimidin-2-yl)-((S)-2-methyl-4-morpholin-2-yl-phenyl)-amine]
31 | 0.002 | 0.127 | c1ccc(Cn2ccc(Nc3ccc([C@@H]4CNCCO4)cc3)n2)cc1 [Example 162, (1-Benzyl-1H-pyrazol-3-yl)-((R)-4-morpholin-2-yl-phenyl)-amine]
32 | 0.0049 | 0.0039 | CCCc1cnc(Nc2ccc([C@@H]3CNCCO3)cc2F)nc1 [Example 128, ((R)-2-Fluoro-4-morpholin-2-yl-phenyl)-(5-propyl-pyrimidin-2-yl)-amine]
33 | 0.0038 | 0.0021 | FC(F)(F)c1cnc(Nc2ccc([C@@H]3CNCCO3)c(Cl)c2)nc1 [Example 204, ((R)-3-Chloro-4-morpholin-2-yl-phenyl)-(5-trifluoromethyl-pyrimidin-2-yl)-amine]
34 | 0.0015 | 0.057 | Cc1cc(Nc2ccc(C3CNCCO3)cc2C)ncc1Cl (racemic) [Example 84, (RS)-5-Chloro-4-methyl-N-(2-methyl-4-(morpholin-2-yl)phenyl)pyridin-2-amine]
35 | 0.0006 | 0.0222 | Cc1cc(Nc2ccc([C@H]3CNCCO3)cc2)ncc1Cl [Example 83, (S)-5-Chloro-4-methyl-N-(4-(morpholin-2-yl)phenyl)pyridin-2-amine]
36 | 0.0047 | 0.0716 | Cc1cc(C2CNCCO2)ccc1Nc1ccc(Cl)cc1 (racemic) [Example 79, (RS)-(4-Chloro-phenyl)-(2-methyl-4-morpholin-2-yl-phenyl)-amine]
37 | 0.0024 | 0.045 | Cc1cc(C2CNCCO2)ccc1Nc1ccc(Br)cn1 (racemic) [Example 76, (RS)-5-Bromo-N-(2-methyl-4-(morpholin-2-yl)phenyl)pyridin-2-amine]
38 | 0.0016 | 0.223 | c1ccc(Cn2ccc(Nc3ccc([C@H]4CNCCO4)cc3)n2)cc1 [Example 161, (1-Benzyl-1H-pyrazol-3-yl)-((S)-4-morpholin-2-yl-phenyl)-amine]
39 | 0.0023 | 0.0866 | Fc1cc(Br)cnc1Nc1ccc([C@H]2CNCCO2)cc1 [Example 57, (S)-5-Bromo-3-fluoro-N-(4-(morpholin-2-yl)phenyl)pyridin-2-amine]
40 | 0.0044 | 0.05 | Clc1cnc(Nc2ccc([C@@H]3CNCCO3)cc2)nc1 [Example 103, (R)-5-Chloro-N-(4-(morpholin-2-yl)phenyl)pyrimidin-2-amine]
41 | 0.0005 | 0.0084 | Clc1cccc2ccc(Nc3ccc([C@H]4CNCCO4)cc3)nc12 [Example 52, (S)-8-Chloro-N-(4-(morpholin-2-yl)phenyl)quinolin-2-amine]
42 | 0.0036 | 0.0348 | c1cc([C@H]2CNCCO2)ccc1Nc1ncc(OCC2CC2)cn1 [Example 124, (S)-5-(Cyclopropylmethoxy)-N-(4-(morpholin-2-yl)phenyl)pyrimidin-2-amine]
